Calls of active or inactive are those of the source. The calls are words filed in the database; no cut-off is given here.
What was measured:
Hepatitis C virus [1] = assay: Inhibition of HCV1b NS5B polymerase at 100 uM after 2 hrs by RdRp activity assay; set-up: species or system Hepatitis C virus subtype 1b
Hepatitis C virus [2] = assay: Inhibition of HCV1b NS5B polymerase assessed as [alpha-32P]UTP incorporation by non-competitive double reciprocal plot; conditions: Hepatitis C virus subtype 1b
Hepatitis C virus [3] = assay: Inhibition of HCV1b NS5B polymerase after 2 hrs by RdRp activity assay; set-up: species or system Hepatitis C virus subtype 1b

IC50 (Hepatitis C virus [3])	Structure (SMILES)	inhibition at 100 µM (Hepatitis C virus [1])	Activity (Hepatitis C virus [2])
20 µM	O=C(Nc1cccn(Cc2ccc(Cl)c(Cl)c2)c1=O)Sc1cccc(C(F)(F)F)c1	> 80%	Active
20 µM	Nc1ncnc2c1ncn2/C=C/C(=O)c1ccco1	> 80%	Active
20 µM	Nc1ncnc2c1ncn2/C=C/C(=O)c1ccccc1	> 80%	Active
